Patent EP3246028A1, “QUINOLINE COMPOUNDS FOR INCREASING INSULINE RELEASE” (Max-Planck-Gesellschaft zur Förderung der Wissenschaften …, priority 2016, dated 2017)
Entries after “also recorded” stand apart in the source; their conditions may differ.

Assays:
Type in all cases: cell-based
[1] = system: RIN-5AH insulinoma beta cell line; assay: Insulin secretion (insulin ELISA of supernatants); conditions: for effect on insulin secretion: negative control quinoline compounds; for activation at 5 µM: RIN-5AH cells, treated in medium for 2 hours, read-out: AV_INSULIN (percent increase in insulin secretion over a DMSO control); for insulin secretion relative to a DMSO control, compared to previously reported quinoline compounds: 5 µM compound 12 vs 50 µM quinidine or chloroquine, 10 µM levofloxacin or gatifloxacin, Figure 1
Experimental: Culture medium and supplements were purchased from Life Technologies. The RIN-5AH insulinoma beta cell line was cultured in RPMI 1640 supplemented with 10% FBS, 2 mM glutamine. All culture media contained 1x penicillin-streptomycin. Cells were grown on 15 cm culture plates at 37°C under 5% CO2 in high humidity atmosphere.
To determine the insulin level from the supernatants insulin ELISA kits from Millipore or Mercodia were used. RIN-5AH cells were seeded in 96 well or 12 well plates and grown overnight. RIN-5AH cells never reached more than 80% confluency before treatment. Cells were washed once with PBS before treatment. Cells were treated in medium for 2 hours and with 5 µM of insulin secretagogue according to the present invention, if not otherwise indicated. After treatment 100ul of supernatant was taken. Samples were assayed immediately or stored at -20°C until measurement. Dilutions were made if necessary and ELISA was subsequently performed according to the user's manual. Insulin secretion was normalized to cell number by MTT assay or to total protein amount by BCA assay (ThermoFisher Scientific, 23225). Plates were read on BioTrek Elx800 absorbance reader at 450 nm.
RIN-5AH beta cells were treated with 5 µM compound 12 or 50 µM quinidine or chloroquine according to the above described protocol (Example 1).

RIN-5AH cells [2] = assay: Calcium influx by FACS analysis (Fluo-4 AM fluorescence); conditions: extracellular Ca2+ present, compound 12 at 5 µM
Experimental: Calcium influx was measured by FACS analysis, similar to protocols previously described (Brewis, I. A., journal of andrology 21, 238-249, doi:10.1002/j.1939-4640.2000.tb02101.x (2000); Vines, A., Cytometry Part A 77A, 1091-1097, doi:10.1002/cyto.a.20974 (2010); Schepers, E., Journal of Immunological Methods 348, 74-82, doi:http://dx.doi.org/10.1016/j.jim.2009.07.002 (2009)).
RIN-5AH cells (30,000 cells per well) were plated in 12 well plates and incubated overnight at 37°C and 5% CO2. Cells were stained with Fluo-4 AM (molecular probes, F14201) by using a 3µM stock solution prepared in HBSS with Ca2+ and Mg2+ (HBSS++) and with addition of a final amount of 0.02% Pluronic-F127 (molecular probes, P6867). Cells were incubated with 600ul of the dye/well for 1h at 37°C, in 5% CO2. They were washed 2x with Ca2+ and Mg2+ free HBSS (HBSS--) (Gibco, 14170) before moving to the next step of the protocol (see below).
Cells were trypsinized for three minutes at 37°C and 5% CO2. The cell suspension was then diluted by adding 1ml HBSS-- / well and centrifuged for 3 minutes at 1200 RPM. Cells were resuspended in 1 mL of HBSS++ or HBSS-- before starting the measurement. Base fluorescent signal was recorded for 30 seconds followed by treatment with the various compounds by quickly adding the compounds to the FACS analysis tubes, while acquisition was not interrupted (gaps). […] Samples were measured continuously for the desired time and all measurements were completed within 40 minutes. Unstained cells and stained cells in external buffer without Ca2+ and Mg2+ (HBSS--) were used as negative controls for the treatments. Data were acquired on BD-FACSCalibur and the visualizations were prepared by FlowJo software.

RIN-5AH cells [3] = assay: Whole cell patch clamp (current clamp and voltage clamp)
Experimental: For the purpose of investigation of membrane potential changes and membrane depolarization that triggers and activate voltage dependent calcium channels in beta cells, whole cell patch clamp studies were conducted with the compounds of the present invention. RIN-5AH cells were trypsinized and suspended in medium. Cells were transferred into the recording chamber and allowed to settle down before beginning a slow perfusion with the external buffer (138.0 mM; NaCl; 5.6 mM KCl; 11.1 mM Glucose; 1.2 mM; MgCl2; 2.6 mM CaCl2; 10.0 mM HEPES). Cells were sealed and patched by the application of a gentle negative pressure. Holding membrane potential was set up to -70mV for voltage clamp experiments. After patching the cells, at least 10s of base signal was recorded for both voltage clamp and current clamp measurements. External stimulation of cells was done by using Picospritzer II instrument (Parker) with 5psi for 30s with the desired concentrations (50uM and 500uM for compound 12 and 500uM for glibenclamide as control). The total recording time was set to 1-4 minutes.

| SMILES | divalent calcium cation influx (Fluo-4 AM fluorescence by FACS) (RIN-5AH cells [2]; Figure 2) | activation at 5 µM [1] | further results |
| --- | --- | --- | --- |
| COc1cc(Nc2cc(C#N)nc3cc(F)c(OCCCN4C(=O)c5ccccc5C4=O)cc23)c(Cl)cc1Cl [Compound 63, 4-(2,4-dichloro-5-methoxy-anilino)-6-[3-(1,3-dioxoisoindolin-2-yl)propoxy]-7-fluoro-quinoline-2-carbonitrile] | did not show any increase | – | effect on insulin secretion [1]: didn't show any effect |
| N#Cc1cc(Nc2ccc(Cl)cc2C(F)(F)F)c2cccc(F)c2n1 [Compound 7, 4-[4-chloro-2-(trifluoromethyl)anilino]-8-fluoro-quinoline-2-carbonitrile] | induced divalent calcium cation influx; also recorded: induced Ca2+ influx | 93% | – |
| COc1cc(Nc2ccnc3cc(OCc4ccccc4)c(OC)cc23)c(Cl)cc1Cl [Compound 73, 7-benzyloxy-N-(2,4-dichloro-5-methoxy-phenyl)-6-methoxy-quinolin-4-amine] | did not show any increase | – | effect on insulin secretion [1]: didn't show any effect |
| COc1ccc(Cl)cc1C(=O)NCCc1ccc(S(=O)(=O)NC(=O)NC2CCCCC2)cc1 [GBA, glibenclamide, reference compound] | caused calcium influx, however, with a delayed response | – | time membrane potential is kept in depolarized state / returns to its initial value (RIN-5AH cells [3]; current clamp): 90 s; onset of increase of inward current (RIN-5AH cells [3]; voltage clamp): small delayed response |
| N#Cc1cc(Nc2c(Cl)cccc2Cl)c2cccc(F)c2n1 [Compound 18, 4-(2,6-dichloroanilino)-8-fluoro-quinoline-2-carbonitrile] | induced divalent calcium cation influx; also recorded: induced Ca2+ influx | 73% | – |
| COc1cc2c(Nc3ccc(Cl)cc3C(F)(F)F)cc(C#N)nc2cc1F [Compound 13, 4-[4-chloro-2-(trifluoromethyl)anilino]-7-fluoro-6-methoxy-quinoline-2-carbonitrile] | induced divalent calcium cation influx; also recorded: induced Ca2+ influx | 83% | – |
| COc1cc(Nc2cc(C#N)nc3cc(F)ccc23)c(Cl)cc1Cl [Compound 12, 4-(2,4-dichloro-5-methoxy-anilino)-7-fluoro-quinoline-2-carbonitrile] | induced divalent calcium cation influx | 85% | insulin secretion relative to a DMSO control, compared to previously reported quinoline compounds [1]: more effective; insulin secretion relative to a DMSO control, compared to previously reported quinoline compounds ([1]; listed as compound 12): significantly superior activity; divalent calcium cation influx (Fluo-4 AM fluorescence by FACS) (RIN-5AH cells [2]; Figure 2, listed as compound 12): induces divalent calcium cation influx; also recorded: induced Ca2+ influx; time membrane potential is kept in depolarized state / returns to its initial value (RIN-5AH cells [3]; current clamp): > 240 s; depolarization rate (RIN-5AH cells [3]; current clamp, 500 µM, Figure 3): dramatically increased; shift in membrane potential in current clamp mode (CC) (RIN-5AH cells [3]; from -70mV, after puffs for 30s, Figures 3A and 3B): -20 mV; onset of increase of inward current (RIN-5AH cells [3]; voltage clamp): immediately; maximal inward current versus GBA treated cells (RIN-5AH cells [3]; voltage clamp, 50 µM compound 12 vs GBA): more than 5 fold; difference of maximal inward ion current versus GBA (RIN-5AH cells [3]; voltage clamp, same concentrations of compound 12 and GBA (500 µM)): more than 10 fold; duration of effect on inward current compared to GBA (RIN-5AH cells [3]; voltage clamp, Figure 4): longer lasting effect; time until inward current flow returned back to baseline (RIN-5AH cells [3]; voltage clamp, Figure 4): 3 min |
| COc1cc(Nc2c(C#N)cnc3cc(OCCCN)c(OC)cc23)c(Cl)cc1Cl [Compound 17, 7-(3-aminopropoxy)-4-(2,4-dichloro-5-methoxy-anilino)-6-methoxy-quinoline-3-carbonitrile] | – | 74% | – |
| COc1cc2c(Oc3ccc(NS(=O)(=O)c4cccc(-c5ccccc5)c4)cc3F)ccnc2cc1OCCCN [Compound 9, N-[4-[[7-(3-aminopropoxy)-6-methoxy-4-quinolyl]oxy]-3-fluoro-phenyl]-3-phenyl-benzenesulfonamide] | – | 90% | – |
| COc1c(F)ccc2c(Nc3ccc(Cl)cc3C(F)(F)F)cc(C#N)nc12 [Compound 4, 4-[4-chloro-2-(trifluoromethyl)anilino]-7-fluoro-8-methoxy-quinoline-2-carbonitrile] | induced divalent calcium cation influx | 101% | – |
| COc1c(F)ccc2c(Nc3c(Cl)cccc3Cl)cc(C#N)nc12 [Compound 8, 4-(2,6-dichloroanilino)-7-fluoro-8-methoxy-quinoline-2-carbonitrile] | induced divalent calcium cation influx; also recorded: induced Ca2+ influx | 93% | – |
| N#Cc1cc(-c2cccc(NS(=O)(=O)c3c(F)cccc3F)c2)c2ccc(F)cc2n1 [Compound 6, N-[3-(2-cyano-7-fluoro-4-quinolyl)phenyl]-2,6-difluoro-benzenesulfonamide] | – | 94% | – |
| COc1cc2c(Oc3ccc(NS(=O)(=O)c4cccc(-c5ccccc5)c4)cc3F)ccnc2cc1OCCCN1CCOCC1 [Compound 26, N-[3-fluoro-4-[[6-methoxy-7-(3-morpholinopropoxy)-4-quinolyl]oxy]phenyl]-3-phenyl-benzenesulfonamide] | – | 47% | – |
| COc1cc(Nc2cc(C#N)nc3c(C(F)(F)F)cccc23)c(Cl)cc1Cl [Compound 22, 4-(2,4-dichloro-5-methoxy-anilino)-8-(trifluoromethyl)quinoline-2-carbonitrile] | – | 58% | – |
| N#Cc1cc(Nc2ccc(Cl)cc2C(F)(F)F)c2cc(F)ccc2n1 [Compound 5, 4-[4-chloro-2-(trifluoromethyl)anilino]-6-fluoro-quinoline-2-carbonitrile] | induced divalent calcium cation influx | 96% | – |
